Assay results as given in PubChem BioAssay AID248 (DTP/NCI, 2004).
“And” between values parts separate entries of the source, which are not always exact repeats. Equal entries are not always repeated. Inconclusive results and toxic doses are left out.

System: L1210 leukemia ip in BDF1 mice, survival T/C
Assay: NCI In Vivo Anticancer Drug Screen. Data for tumor model L1210 Leukemia (intraperitoneal) in B6D2F1 (BDF1) mice
Conditions: endpoint: mean survival time, higher = longer survival
In short: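 Antitumor effect is assessed in tumor-bearing animals. Survival in the compound arm is compared with a vehicle-dosed control arm and expressed as their quotient.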

Question: For O=C(Nc1ccc(C2=NCCN2)cc1)c1ccc(C(=O)Nc2ccc(C3=NCCN3)cc2)c(Cl)c1, which T/C (dose: 1.8 mg/kg/injection, schedule: Q01DX009 (ip), vehicle: Klucel (hydroxypropylcellulose) (HPC)) is on record?
Answer: 100 % of control and 105 % of control

Question: What about the T/C (dose: 2.0 mg/kg/injection, schedule: Q01DX010 (ip), vehicle: other) of the same compound?
Answer: 94 % of control and 101 % of control

Question: And the T/C (dose: 2.0 mg/kg/injection, schedule: Q01DX Z (ip), vehicle: saline)?
Answer: 103 % of control

Question: And the T/C (dose: 2.0 mg/kg/injection, schedule: Q01DX Z (sc), vehicle: carboxymethylcellulose (CMC))?
Answer: 110 % of control

Question: What about the T/C (dose: 2.5 mg/kg/injection, schedule: Q04DX002 (ip), vehicle: Klucel (hydroxypropylcellulose) (HPC)) of the same compound?
Answer: 95 % of control

Question: And the T/C (dose: 3.0 mg/kg/injection, schedule: Q03DX Z (ip), vehicle: saline)?
Answer: 114 % of control

Question: What about the T/C (dose: 3.5 mg/kg/injection, schedule: Q01DX009 (ip), vehicle: Klucel (hydroxypropylcellulose) (HPC)) of the same compound?
Answer: 107 % of control and 115 % of control

Question: What about the T/C (dose: 4.0 mg/kg/injection, schedule: Q01DX010 (ip), vehicle: other) of the same compound?
Answer: 107 % of control and 117 % of control

Question: And the T/C (dose: 4.0 mg/kg/injection, schedule: Q01DX Z (sc), vehicle: carboxymethylcellulose (CMC))?
Answer: 110 % of control

Question: And the T/C (dose: 5.0 mg/kg/injection, schedule: Q04DX002 (ip), vehicle: Klucel (hydroxypropylcellulose) (HPC))?
Answer: 95 % of control

Question: And the T/C (dose: 6.0 mg/kg/injection, schedule: Q03DX Z (ip), vehicle: saline)?
Answer: 118 % of control

Question: And the T/C (dose: 6.7 mg/kg/injection, schedule: Q01DX010 (ip), vehicle: other)?
Answer: 124 % of control

Question: What about the T/C (dose: 6.7 mg/kg/injection, schedule: Q01DX015 (ip), vehicle: carboxymethylcellulose (CMC)) of the same compound?
Answer: 116 % of control

Question: What about the T/C (dose: 7.8 mg/kg/injection, schedule: Q02DX010 (ip), vehicle: carboxymethylcellulose (CMC)) of the same compound?
Answer: 117 % of control

Question: And the T/C (dose: 8.0 mg/kg/injection, schedule: Q01DX Z (ip), vehicle: saline)?
Answer: 188 % of control

Question: What about the T/C (dose: 10.0 mg/kg/injection, schedule: Q01DX015 (ip), vehicle: carboxymethylcellulose (CMC)) of the same compound?
Answer: 119 % of control

Question: What about the T/C (dose: 11.0 mg/kg/injection, schedule: Q02DX010 (ip), vehicle: carboxymethylcellulose (CMC)) of the same compound?
Answer: 181 % of control

Question: And the T/C (dose: 12.5 mg/kg/injection, schedule: Q02DX004 (im), vehicle: olive oil, sesame oil, peanut oil)?
Answer: 116 % of control and 119 % of control

Question: And the T/C (dose: 13.0 mg/kg/injection, schedule: Q## X004 (ip), vehicle: carboxymethylcellulose (CMC))?
Answer: 105 % of control and 106 % of control

Question: And the T/C (dose: 15.0 mg/kg/injection, schedule: Q01DX010 (ip), vehicle: other)?
Answer: 166 % of control

Question: And the T/C (dose: 15.0 mg/kg/injection, schedule: Q01DX015 (ip), vehicle: carboxymethylcellulose (CMC))?
Answer: 169 % of control and 171 % of control

Question: And the T/C (dose: 16.0 mg/kg/injection, schedule: Q01DX010 (ip), vehicle: water)?
Answer: 156 % of control

Question: What about the T/C (dose: 16.0 mg/kg/injection, schedule: Q01DX Z (ip), vehicle: saline) of the same compound?
Answer: 173 % of control

Question: And the T/C (dose: 17.4 mg/kg/injection, schedule: Q02DX008 (ip), vehicle: carboxymethylcellulose (CMC))?
Answer: 121 % of control

Question: What about the T/C (dose: 20.0 mg/kg/injection, schedule: Q01DX001 (ip), vehicle: saline) of the same compound?
Answer: 114 % of control

Question: What about the T/C (dose: 20.0 mg/kg/injection, schedule: Q## X004 (ip), vehicle: carboxymethylcellulose (CMC)) of the same compound?
Answer: 103 % of control and 114 % of control

Question: What about the T/C (dose: 22.5 mg/kg/injection, schedule: Q01DX010 (ip), vehicle: other) of the same compound?
Answer: 178 % of control

Question: What about the T/C (dose: 24.0 mg/kg/injection, schedule: Q02DX010 (ip), vehicle: carboxymethylcellulose (CMC)) of the same compound?
Answer: 168 % of control

Question: What about the T/C (dose: 25.0 mg/kg/injection, schedule: Q01DX001 (im), vehicle: steriod suspending solution) of the same compound?
Answer: 103 % of control

Question: And the T/C (dose: 26.0 mg/kg/injection, schedule: Q02DX008 (ip), vehicle: carboxymethylcellulose (CMC))?
Answer: 168 % of control

Question: And the T/C (dose: 26.0 mg/kg/injection, schedule: Q02DX010 (ip), vehicle: carboxymethylcellulose (CMC))?
Answer: 169 % of control and 182 % of control

Question: What about the T/C (dose: 28.0 mg/kg/injection, schedule: Q07DX Z (ip), vehicle: saline) of the same compound?
Answer: 121 % of control

Question: What about the T/C (dose: 29.0 mg/kg/injection, schedule: Q01DX001 (ip), vehicle: carboxymethylcellulose (CMC)) of the same compound?
Answer: 122 % of control

Question: What about the T/C (dose: 29.0 mg/kg/injection, schedule: Q01DX001 (ip), vehicle: other) of the same compound?
Answer: 109 % of control

Question: And the T/C (dose: 30.0 mg/kg/injection, schedule: Q01DX001 (ip), vehicle: carboxymethylcellulose (CMC))?
Answer: 116 % of control and 118 % of control

Question: What about the T/C (dose: 30.0 mg/kg/injection, schedule: Q## X004 (ip), vehicle: carboxymethylcellulose (CMC)) of the same compound?
Answer: 113 % of control and 115 % of control

Question: What about the T/C (dose: 32.0 mg/kg/injection, schedule: Q01DX Z (sc), vehicle: carboxymethylcellulose (CMC)) of the same compound?
Answer: 185 % of control

Question: What about the T/C (dose: 33.7 mg/kg/injection, schedule: Q01DX010 (ip), vehicle: other) of the same compound?
Answer: 167 % of control

Question: What about the T/C (dose: 39.0 mg/kg/injection, schedule: Q01DX015 (ip), vehicle: carboxymethylcellulose (CMC)) of the same compound?
Answer: 119 % of control

Question: What about the T/C (dose: 39.0 mg/kg/injection, schedule: Q02DX008 (ip), vehicle: carboxymethylcellulose (CMC)) of the same compound?
Answer: 184 % of control and 192 % of control

Question: And the T/C (dose: 39.0 mg/kg/injection, schedule: Q02DX010 (ip), vehicle: other)?
Answer: 167 % of control

Question: And the T/C (dose: 40.0 mg/kg/injection, schedule: Q01DX001 (ip), vehicle: saline)?
Answer: 106 % of control

Question: And the T/C (dose: 42.0 mg/kg/injection, schedule: Q01DX001 (ip), vehicle: carboxymethylcellulose (CMC))?
Answer: 122 % of control

Question: What about the T/C (dose: 42.0 mg/kg/injection, schedule: Q01DX001 (ip), vehicle: other) of the same compound?
Answer: 117 % of control

Question: What about the T/C (dose: 44.0 mg/kg/injection, schedule: Q01DX001 (ip), vehicle: carboxymethylcellulose (CMC)) of the same compound?
Answer: 113 % of control

Question: What about the T/C (dose: 48.0 mg/kg/injection, schedule: Q01DX001 (ip), vehicle: carboxymethylcellulose (CMC)) of the same compound?
Answer: 113 % of control

Question: What about the T/C (dose: 48.0 mg/kg/injection, schedule: Q01DX010 (ip), vehicle: water) of the same compound?
Answer: 157 % of control

Question: And the T/C (dose: 48.4 mg/kg/injection, schedule: Q01DX001 (ip), vehicle: carboxymethylcellulose (CMC))?
Answer: 104 % of control

Question: And the T/C (dose: 50.0 mg/kg/injection, schedule: Q01DX010 (sc), vehicle: olive oil, sesame oil, peanut oil)?
Answer: 123 % of control

Question: What about the T/C (dose: 50.0 mg/kg/injection, schedule: Q01DX015 (ip), vehicle: carboxymethylcellulose (CMC)) of the same compound?
Answer: 100 % of control and 124 % of control

Question: What about the T/C (dose: 50.0 mg/kg/injection, schedule: Q02DX004 (im), vehicle: olive oil, sesame oil, peanut oil) of the same compound?
Answer: 156 % of control

Question: And the T/C (dose: 53.6 mg/kg/injection, schedule: Q## X032 (ip), vehicle: carboxymethylcellulose (CMC))?
Answer: 162 % of control

Question: And the T/C (dose: 54.0 mg/kg/injection, schedule: Q02DX010 (ip), vehicle: carboxymethylcellulose (CMC))?
Answer: 181 % of control

Question: And the T/C (dose: 54.0 mg/kg/injection, schedule: Q02DX010 (ip), vehicle: other)?
Answer: 157 % of control

Question: And the T/C (dose: 54.0 mg/kg/injection, schedule: Q## X032 (ip), vehicle: carboxymethylcellulose (CMC))?
Answer: 153 % of control

Question: And the T/C (dose: 56.0 mg/kg/injection, schedule: Q01DX009 (ip), vehicle: Klucel (hydroxypropylcellulose) (HPC))?
Answer: 93 % of control

Question: What about the T/C (dose: 56.0 mg/kg/injection, schedule: Q07DX Z (ip), vehicle: saline) of the same compound?
Answer: 123 % of control

Question: What about the T/C (dose: 58.5 mg/kg/injection, schedule: Q02DX008 (ip), vehicle: carboxymethylcellulose (CMC)) of the same compound?
Answer: 166 % of control

Question: What about the T/C (dose: 58.7 mg/kg/injection, schedule: Q02DX010 (ip), vehicle: carboxymethylcellulose (CMC)) of the same compound?
Answer: 162 % of control

Question: And the T/C (dose: 62.5 mg/kg/injection, schedule: Q01DX010 (oral), vehicle: other)?
Answer: 113 % of control

Question: What about the T/C (dose: 67.0 mg/kg/injection, schedule: Q## X004 (ip), vehicle: carboxymethylcellulose (CMC)) of the same compound?
Answer: 157 % of control and 161 % of control

Question: And the T/C (dose: 74.0 mg/kg/injection, schedule: Q01DX001 (ip), vehicle: carboxymethylcellulose (CMC))?
Answer: 120 % of control

Question: What about the T/C (dose: 80.0 mg/kg/injection, schedule: Q01DX001 (ip), vehicle: saline) of the same compound?
Answer: 119 % of control

Question: And the T/C (dose: 80.0 mg/kg/injection, schedule: Q## X032 (ip), vehicle: carboxymethylcellulose (CMC))?
Answer: 163 % of control and 178 % of control and 188 % of control

Question: And the T/C (dose: 81.0 mg/kg/injection, schedule: Q02DX010 (ip), vehicle: carboxymethylcellulose (CMC))?
Answer: 106 % of control

Question: And the T/C (dose: 96.0 mg/kg/injection, schedule: Q01DX001 (ip), vehicle: carboxymethylcellulose (CMC))?
Answer: 156 % of control

Question: What about the T/C (dose: 96.0 mg/kg/injection, schedule: Q01DX001 (ip), vehicle: other) of the same compound?
Answer: 162 % of control

Question: What about the T/C (dose: 100.0 mg/kg/injection, schedule: Q01DX010 (sc), vehicle: olive oil, sesame oil, peanut oil) of the same compound?
Answer: 93 % of control

Question: And the T/C (dose: 112.0 mg/kg/injection, schedule: Q07DX Z (ip), vehicle: saline)?
Answer: 121 % of control

Question: What about the T/C (dose: 120.0 mg/kg/injection, schedule: Q## X032 (ip), vehicle: carboxymethylcellulose (CMC)) of the same compound?
Answer: 180 % of control and 181 % of control

Question: And the T/C (dose: 125.0 mg/kg/injection, schedule: Q01DX010 (oral), vehicle: other)?
Answer: 107 % of control

Question: What about the T/C (dose: 180.0 mg/kg/injection, schedule: Q## X032 (ip), vehicle: carboxymethylcellulose (CMC)) of the same compound?
Answer: 94 % of control

Question: And the T/C (dose: 250.0 mg/kg/injection, schedule: Q01DX010 (oral), vehicle: other)?
Answer: 111 % of control

Question: How did the T/C (dose: 25.0 mg/kg/injection, schedule: Q01DX009 (ip), vehicle: saline) turn out when C[N+](C)(C)CCOC(=O)c1cc(CBr)cc(CBr)c1 was run?
Answer: 101 % of control

Question: And the T/C (dose: 25.0 mg/kg/injection, schedule: Q04DX003 (ip), vehicle: saline)?
Answer: 98 % of control

Question: And the T/C (dose: 50.0 mg/kg/injection, schedule: Q01DX009 (ip), vehicle: saline)?
Answer: 95 % of control

Question: And the T/C (dose: 50.0 mg/kg/injection, schedule: Q04DX003 (ip), vehicle: saline)?
Answer: 100 % of control

Question: What about the T/C (dose: 100.0 mg/kg/injection, schedule: Q04DX003 (ip), vehicle: saline) of the same compound?
Answer: 102 % of control
